In PubChem BioAssay (NCI):
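Interpolation was linear, between the two tested concentrations surrounding the appropriate level; five concentrations were tested over 48 hours in 96-well plates. Here, GI50 denotes the concentration required for 50% inhibition of growth. At the TGI there is no net growth.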

Assays:
Assay in all cases: inhibition of tumour cell growth, NCI panel, 48 h
[1] = tested on: COLO 205 colon
[2] = tested on: NCI/ADR-RES ovarian
[3] = tested on: SF-295 CNS
[4] = tested on: MDA-MB-435
[5] = tested on: EKVX NSCLC
[6] = tested on: CCRF-CEM leukemia
[7] = tested on: MCF7 breast
[8] = tested on: SN12C renal
[9] = tested on: RPMI-8226 leukemia
[10] = tested on: KM12 colon
[11] = tested on: K-562 leukemia
[12] = tested on: SK-MEL-5 melanoma
[13] = tested on: UACC-257 melanoma
[14] = tested on: 786-0 renal
[15] = tested on: HCC-2998 colon
[16] = tested on: RXF 393 renal
[17] = tested on: CAKI-1 renal
[18] = tested on: OVCAR-3 ovarian
[19] = tested on: TK-10 renal
[20] = tested on: SW-620 colon
[21] = tested on: UACC-62 melanoma
[22] = tested on: T-47D breast
[23] = tested on: MALME-3M melanoma
[24] = tested on: HT29 colon
[25] = tested on: NCI-H226 lung
[26] = tested on: SF-268 CNS
[27] = tested on: ACHN renal
[28] = tested on: U251 CNS
[29] = tested on: MDA-MB-231 breast
[30] = tested on: NCI-H23 lung
[31] = tested on: HCT-116 colon
[32] = tested on: IGROV1 ovarian
[33] = tested on: A498 renal
[34] = tested on: SF-539 CNS
[35] = tested on: NCI-H522 lung
[36] = tested on: SK-OV-3 ovarian
[37] = tested on: HOP-62 NSCLC
[38] = tested on: OVCAR-4 ovarian
[39] = tested on: SK-MEL-2 melanoma
[40] = tested on: HL-60(TB) leukemia
[41] = tested on: NCI-H460 lung
[42] = tested on: UO-31 renal
[43] = tested on: SR leukemia
[44] = tested on: SNB-19 CNS
[45] = tested on: BT-549 breast
[46] = tested on: LOX IMVI melanoma
[47] = tested on: OVCAR-5 ovarian
[48] = tested on: MOLT-4 leukemia
[49] = tested on: SNB-75 CNS
[50] = tested on: HS 578T breast
[51] = tested on: HOP-92 NSCLC
[52] = tested on: SK-MEL-28 melanoma
[53] = tested on: OVCAR-8 ovarian
[54] = tested on: DU-145 prostate
[55] = tested on: HCT-15 colon
[56] = tested on: PC-3 prostate
[57] = tested on: A549 NSCLC
[58] = tested on: M14 melanoma

Compound: NS(=O)(=O)c1ccc(Nc2ncc(-c3ccccc3)o2)cc1
- GI50 [1]: > 23.7 µM
- TGI [1]: > 25 µM
- GI50 [2]: > 25 µM
- TGI [2]: > 25 µM
- GI50 [3]: > 25 µM
- TGI [3]: > 25 µM
- GI50 [4]: > 25 µM
- TGI [4]: > 25 µM
- GI50 [5]: > 25 µM
- TGI [5]: > 25 µM
- GI50 [6]: > 25 µM
- TGI [6]: > 25 µM
- GI50 [7]: > 25 µM
- TGI [7]: > 25 µM
- GI50 [8]: > 25 µM
- TGI [8]: > 25 µM
- GI50 [9]: > 25 µM
- TGI [9]: > 25 µM
- GI50 [10]: > 25 µM
- TGI [10]: > 25 µM
- GI50 [11]: > 25 µM
- TGI [11]: > 25 µM
- GI50 [12]: > 25 µM
- TGI [12]: > 25 µM
- GI50 [13]: > 25 µM
- TGI [13]: > 25 µM
- GI50 [14]: > 25 µM
- TGI [14]: > 25 µM
- GI50 [15]: > 25 µM
- TGI [15]: > 25 µM
- GI50 [16]: > 25 µM
- TGI [16]: > 25 µM
- GI50 [17]: > 25 µM
- TGI [17]: > 25 µM
- GI50 [18]: > 25 µM
- TGI [18]: > 25 µM
- GI50 [19]: > 25 µM
- TGI [19]: > 25 µM
- GI50 [20]: > 22.1 µM
- TGI [20]: > 25 µM
- GI50 [21]: > 25 µM
- TGI [21]: > 25 µM
- GI50 [22]: > 25 µM
- TGI [22]: > 25 µM
- GI50 [23]: > 25 µM
- TGI [23]: > 25 µM
- GI50 [24]: > 25 µM
- TGI [24]: > 25 µM
- GI50 [25]: > 25 µM
- TGI [25]: > 25 µM
- GI50 [26]: > 25 µM
- TGI [26]: > 25 µM
- GI50 [27]: > 25 µM
- TGI [27]: > 25 µM
- GI50 [28]: > 25 µM
- TGI [28]: > 25 µM
- GI50 [29]: > 25 µM
- TGI [29]: > 25 µM
- GI50 [30]: > 25 µM
- TGI [30]: > 25 µM
- GI50 [31]: > 25 µM
- TGI [31]: > 25 µM
- GI50 [32]: > 25 µM
- TGI [32]: > 25 µM
- GI50 [33]: > 19.6 µM
- TGI [33]: > 25 µM
- GI50 [34]: > 22.9 µM
- TGI [34]: > 25 µM
- GI50 [35]: > 25 µM
- TGI [35]: > 25 µM
- GI50 [36]: > 25 µM
- TGI [36]: > 25 µM
- GI50 [37]: > 25 µM
- TGI [37]: > 25 µM
- GI50 [38]: > 25 µM
- TGI [38]: > 25 µM
- GI50 [39]: > 25 µM
- TGI [39]: > 25 µM
- GI50 [40]: > 25 µM
- TGI [40]: > 25 µM
- GI50 [41]: > 25 µM
- TGI [41]: > 25 µM
- GI50 [42]: > 25 µM
- TGI [42]: > 25 µM
- GI50 [43]: 9.69 µM
- TGI [43]: > 25 µM
- GI50 [44]: > 25 µM
- TGI [44]: > 25 µM
- GI50 [45]: > 25 µM
- TGI [45]: > 25 µM
- GI50 [46]: > 25 µM
- TGI [46]: > 25 µM
- GI50 [47]: > 25 µM
- TGI [47]: > 25 µM
- GI50 [48]: > 25 µM
- TGI [48]: > 25 µM
- GI50 [49]: > 9.68 µM
- TGI [49]: > 25 µM
- GI50 [50]: 20.5 µM
- TGI [50]: > 25 µM
- GI50 [51]: > 25 µM
- TGI [51]: > 25 µM
- GI50 [52]: > 25 µM
- TGI [52]: > 25 µM
- GI50 [53]: > 25 µM
- TGI [53]: > 25 µM
- GI50 [54]: > 25 µM
- TGI [54]: > 25 µM
- GI50 [55]: > 25 µM
- TGI [55]: > 25 µM
- GI50 [56]: > 25 µM
- TGI [56]: > 25 µM
- GI50 [57]: > 25 µM
- TGI [57]: > 25 µM
- GI50 [58]: > 25 µM
- TGI [58]: > 25 µM
